biological target: CDK2 (human) (UniProt P24941); experiment: Enzyme Assay

Row | IC50 | Structure (SMILES)
1 | 10 to 990 nM | O=[N+]([O-])c1ccc2c(c1)C(c1ccccc1Cl)=Nc1c(n[nH]c1-c1cccc(S)c1)N2
2 | 10 to 990 nM | COc1cc(O)ccc1-c1[nH]nc2c1N=C(c1ccccc1Cl)c1cc([N+](=O)[O-])ccc1N2
3 | 10 to 990 nM | Cc1[nH]nc2c1N=C(c1ccccc1Cl)c1cc(Cl)ccc1N2
4 | 10 to 990 nM | O=[N+]([O-])c1ccc2c(c1)C(c1ccccc1Cl)=Nc1c(n[nH]c1-c1ccc(-c3ccccc3)cc1)N2
5 | 10 to 990 nM | O=[N+]([O-])c1ccc2c(c1)C(c1ccccc1Cl)=Nc1c(n[nH]c1-c1ccco1)N2
6 | 10 to 990 nM | O=[N+]([O-])c1ccc2c(c1)C(c1ccccc1Cl)=Nc1c(n[nH]c1-c1ccccc1)N2
7 | 10 to 990 nM | O=[N+]([O-])c1ccc2c(c1)C(c1ccccc1Cl)=Nc1c(n[nH]c1-c1ccc[nH]1)N2
8 | 10 to 990 nM | O=[N+]([O-])c1ccc2c(c1)C(c1ccccc1Cl)=Nc1c[nH]nc1N2
9 | 10 to 990 nM | O=[N+]([O-])c1ccc2c(c1)C(c1ccccc1Cl)=Nc1c(n[nH]c1C(F)(F)F)N2
10 | 10 to 990 nM | CCc1[nH]nc2c1N=C(c1ccccc1Cl)c1cc([N+](=O)[O-])ccc1N2
11 | 10 to 990 nM | NC(=O)c1[nH]nc2c1N=C(c1ccccc1Cl)c1cc([N+](=O)[O-])ccc1N2
12 | 10 to 990 nM | O=[N+]([O-])c1cccc(-c2[nH]nc3c2N=C(c2ccccc2Cl)c2cc([N+](=O)[O-])ccc2N3)c1
13 | 10 to 990 nM | Cc1[nH]nc2c1N=C(c1ccccc1Cl)c1cc([N+](=O)[O-])ccc1N2
14 | 10 to 990 nM | O=[N+]([O-])c1ccc2c(c1)C(c1ccccc1Cl)=Nc1c(n[nH]c1-c1ccc(OC(F)(F)F)cc1)N2
15 | 10 to 990 nM | Cc1[nH]nc2c1N=C(c1ccccc1F)c1cc([N+](=O)[O-])ccc1N2
16 | 10 to 990 nM | O=[N+]([O-])c1cccc(C2=Nc3c[nH]nc3Nc3ccc([N+](=O)[O-])cc32)c1
17 | 10 to 990 nM | CCC(C)c1[nH]nc2c1N=C(c1ccccc1Cl)c1cc([N+](=O)[O-])ccc1N2 (stereo not drawn)
18 | 10 to 990 nM | O=[N+]([O-])c1ccc2c(c1)C(c1ccccc1Cl)=Nc1c(n[nH]c1-c1cc[nH]n1)N2
19 | 10 to 990 nM | O=Cc1[nH]nc2c1N=C(c1ccccc1Cl)c1cc([N+](=O)[O-])ccc1N2
20 | 10 to 990 nM | NNC(=O)c1[nH]nc2c1N=C(c1ccccc1Cl)c1cc([N+](=O)[O-])ccc1N2
21 | 10 to 990 nM | O=[N+]([O-])c1ccc2c(c1)C(c1ccccc1Cl)=Nc1c(n[nH]c1C1CC1)N2
22 | 10 to 990 nM | O=[N+]([O-])c1ccc2c(c1)C(c1ccccc1)=Nc1c[nH]nc1N2

Row | IC50 | Structure (SMILES)
23 | 10 to 990 nM | O=[N+]([O-])c1ccc2c(c1)C(c1ccccc1)=Nc1c(n[nH]c1C1CC1)N2
24 | 10 to 990 nM | O=[N+]([O-])c1ccc2c(c1)C(c1ccccc1Cl)=Nc1c(n[nH]c1CO)N2
25 | 10 to 990 nM | O=[N+]([O-])c1ccc2c(c1)C(c1ccccc1Cl)=Nc1c(n[nH]c1-c1nccs1)N2
26 | 10 to 990 nM | O=[N+]([O-])c1ccc2c(c1)C(c1ccccc1Cl)=Nc1c(n[nH]c1-c1cccc3c1OCO3)N2
27 | 10 to 990 nM | C=Cc1[nH]nc2c1N=C(c1ccccc1Cl)c1cc([N+](=O)[O-])ccc1N2
28 | 10 to 990 nM | Cc1[nH]nc2c1N=C(c1ccccc1C(F)(F)F)c1cc([N+](=O)[O-])ccc1N2
29 | 10 to 990 nM | CCCc1[nH]nc2c1N=C(c1ccccc1Cl)c1cc([N+](=O)[O-])ccc1N2
30 | 10 to 990 nM | CC(C)c1[nH]nc2c1N=C(c1ccccc1Cl)c1cc([N+](=O)[O-])ccc1N2
31 | 10 to 990 nM | Cc1cn[nH]c1-c1[nH]nc2c1N=C(c1ccccc1Cl)c1cc([N+](=O)[O-])ccc1N2
32 | 10 to 990 nM | CSc1ccc(-c2[nH]nc3c2N=C(c2ccccc2Cl)c2cc([N+](=O)[O-])ccc2N3)cc1
33 | 10 to 990 nM | O=[N+]([O-])c1ccc2c(c1)C(c1ccccc1Cl)=Nc1c(n[nH]c1-c1c[nH]cn1)N2
34 | 10 to 990 nM | O=[N+]([O-])c1ccc2c(c1)C(c1ccccc1Cl)=Nc1c(n[nH]c1-c1ccccc1S)N2
35 | 10 to 990 nM | Cc1cccc(S)c1-c1[nH]nc2c1N=C(c1ccccc1Cl)c1cc([N+](=O)[O-])ccc1N2
36 | 10 to 990 nM | N#Cc1[nH]nc2c1N=C(c1ccccc1Cl)c1cc([N+](=O)[O-])ccc1N2
37 | 10 to 990 nM | Cc1[nH]nc2c1N=C(c1ccccc1)c1cc([N+](=O)[O-])ccc1N2
38 | 10 to 990 nM | O=[N+]([O-])c1ccc2c(c1)C(c1ccccc1Cl)=Nc1c(n[nH]c1-c1cccnc1)N2
39 | 10 to 990 nM | CC(=O)Nc1ccc2c(c1)C(c1ccccc1Cl)=Nc1c(n[nH]c1C)N2
40 | 10 to 990 nM | COCc1[nH]nc2c1N=C(c1ccccc1Cl)c1cc([N+](=O)[O-])ccc1N2
41 | 10 to 990 nM | COc1ccc2c(c1)C(c1ccccc1Cl)=Nc1c(n[nH]c1C)N2
42 | 10 to 990 nM | O=[N+]([O-])c1ccc2c(c1)C(c1ccccc1Cl)=Nc1c(n[nH]c1-c1ccncc1)N2
43 | 10 to 990 nM | O=[N+]([O-])c1ccc2c(c1)C(c1ccccc1Cl)=Nc1c(n[nH]c1-n1cccn1)N2

The next lines start with the molecule.

Row | Structure (SMILES) | IC50
44 | Cc1[nH]nc2c1N=C(c1ccccc1F)c1cc(C#N)ccc1N2 | 10 to 990 nM
45 | Cc1[nH]nc2c1N=C(c1ccccc1F)c1cc(C(N)=O)ccc1N2 | 10 to 990 nM
46 | C=CC(=O)Nc1ccc2c(c1)C(c1ccccc1Cl)=Nc1c(n[nH]c1C)N2 | 10 to 990 nM
47 | CCOC(=O)c1ccc2c(c1)C(c1ccccc1F)=Nc1c[nH]nc1N2 | 10 to 990 nM
48 | O=[N+]([O-])c1ccc2c(c1)C(c1ccccc1F)=Nc1c[nH]nc1N2 | 10 to 990 nM
49 | Cc1[nH]nc2c1N=C(c1ccccc1)c1ccccc1N2 | 10 to 990 nM
50 | Cc1[nH]nc2c1N=C(c1ccccc1F)c1ccccc1N2 | 10 to 990 nM
51 | Cc1[nH]nc2c1N=C(c1ccccc1Cl)c1cc(NS(=O)(=O)N3CCOCC3)ccc1N2 | 10 to 990 nM
52 | CC(C)c1[nH]nc2c1N=C(c1ccccc1Cl)c1cc(N)ccc1N2 | 10 to 990 nM
53 | Cc1[nH]nc2c1N=C(c1ccccc1Cl)c1ccccc1N2 | 10 to 990 nM
54 | NC(=O)c1ccc2c(c1)C(c1ccccc1F)=Nc1c[nH]nc1N2 | 10 to 990 nM
55 | O=C(NCCO)c1ccc2c(c1)C(c1ccccc1F)=Nc1c[nH]nc1N2 | 10 to 990 nM
56 | Cc1[nH]nc2c1N=C(c1ccccc1Cl)c1cc(NS(C)(=O)=O)ccc1N2 | 10 to 990 nM
57 | Cc1[nH]nc2c1N=C(c1ccccc1F)c1cc(I)ccc1N2 | 10 to 990 nM
58 | Cc1[nH]nc2c1N=C(c1ccccc1F)c1cc(Cl)ccc1N2 | 10 to 990 nM
59 | Cc1[nH]nc2c1N=C(c1ccccc1F)c1cc(F)ccc1N2 | 10 to 990 nM
60 | Cc1[nH]nc2c1N=C(c1ccccc1Cl)c1cc(NS(=O)(=O)NCCl)ccc1N2 | 10 to 990 nM
61 | N#Cc1ccc2c(c1)C(c1ccccc1F)=Nc1c(n[nH]c1CO)N2 | 10 to 990 nM
62 | Cc1[nH]nc2c1N=C(c1ccccc1F)c1cc(C(=O)NCCO)ccc1N2 | 10 to 990 nM
63 | Cc1[nH]nc2c1N=C(c1ccccc1)c1cc(Cl)ccc1N2 | 10 to 990 nM
64 | Cc1[nH]nc2c1N=C(c1ccccc1Cl)c1cc(NS(=O)(=O)N(C)C)ccc1N2 | 10 to 990 nM
65 | Cc1[nH]nc2c1N=C(c1ccccc1)c1cc(F)ccc1N2 | 10 to 990 nM
66 | Cc1[nH]nc2c1N=C(c1ccccc1Cl)c1cc(N)ccc1N2 | 10 to 990 nM
67 | CCOC(=O)c1ccc2c(c1)C(c1ccccc1F)=Nc1c(n[nH]c1C)N2 | 10 to 990 nM
68 | O=[N+]([O-])c1ccc2c(c1)C(c1ccccc1C(F)(F)F)=Nc1c[nH]nc1N2 | 10 to 990 nM
69 | Cc1[nH]nc2c1N=C(c1ccccc1F)c1cc(C(=O)NCCN3CCOCC3)ccc1N2 | 10 to 990 nM
70 | Cc1[nH]nc2c1N=C(c1ccccc1F)c1cc(C(=O)N3CCOCC3)ccc1N2 | 10 to 990 nM
71 | N#Cc1ccc2c(c1)C(c1ccccc1F)=Nc1c[nH]nc1N2 | 10 to 990 nM
72 | Clc1ccccc1C1=Nc2c[nH]nc2Nc2ccccc21 | 10 to 990 nM
73 | O=C(c1ccc2c(c1)C(c1ccccc1F)=Nc1c[nH]nc1N2)N1CCOCC1 | 10 to 990 nM

Source: the Kinase Knowledgebase extract (Sharma et al. 2016)
